Results from the pKa sets of Baltruschat and Czodrowski (2020).
Where a SMILES comes first, the peptide text is derived from it.

Conditions: basic group

Point of comparison: `Cc1cccc(CCCCCCCC(=O)[O-])n1`, pKa 7. Against it:
- N[C@@H](Cc1c[nH]cn1)C(=O)NCC(=O)[O-] (H-His-Gly-OH) — higher, 7.82
- Nc1ccc2cc3ccc(Cl)cc3nc2c1 — higher, 7.26
- NCC[NH3+] — within 0.2 log units, 7.14
- C=CCc1c(O)n[nH]c1C — lower, 2.8
- [S-]c1ccnc2ccccc12 — higher, 8.83
- NCCCCCCCCC(=O)[O-] — higher, 11
- ONc1ccccc1 — lower, -0.32
- O=c1[nH]c(=S)c2[nH]cnc2[nH]1 — lower, 0.9
- c1ncc(Cc2cnc[nH]2)[nH]1 — higher, 7.63
- Cc1ccno1 — lower, 2.3
- Cn1c(-c2ccccn2)nc2ccccc21 — lower, 4.47
- Cc1cc(C)nc([S-])n1 — higher, 8.5
- COc1ccc(F)cc1C(=O)N[C@@H]1C[C@H]2CC[C@@H](C1)N2Cc1ccccc1 — higher, 8.82
- CCCCCCCCCCCN — higher, 10.6
- CN(C)c1ccccc1 — lower, 5.1
- CN(C)c1ccc2ccccc2c1 — lower, 4.57
- C=C(C)C(=O)OCCNC(C)C — higher, 9.13
- N[C@@H](CC(=O)[O-])C(=O)[O-] — higher, 9.54
- CCC(=O)C(CC(C)N(C)C)(c1ccccc1)c1ccccc1 (stereo not drawn) — higher, 8.62
- N[C@H]1CCCC[C@@H]1[NH3+] — lower, 6.71
- N#CCc1cccnc1 — lower, 3.78
- Cc1ccc(-c2cnc(-c3ccc(C)cc3)o2)cc1 — lower, 1.12
- CN1C[C@@H](C(=O)[O-])C[C@H]2c3cccc4[nH]cc(c34)C[C@@H]21 — higher, 8.47
- CN(C)c1ccncc1 — higher, 9.7
- Nc1cc(N)c2cccnc2c1O — within 0.2 log units, 6.96
- Cc1n[nH]cc1Cl — lower, 1.4
- CC(=O)OC1CN2CCC1CC2 (stereo not drawn) — higher, 9.27
- CC(=O)n1ccnc1 — lower, 3.6
- Cn1cc([O-])nc1N — higher, 13.4
- CN(C)CCCCCCCCNC(=O)/C=N/[O-] — higher, 10.5
- Cc1nc2cccc([N+](=O)[O-])c2c(NCCC[NH+](C)C)c1C — lower, 6.64
- Cn1ccnc1CS — lower, 6.31
- Cc1cc(N)ccc1-c1ccc(N)cc1C — lower, 4.9
- C/C=C1/CN2CC[C@]34C(=C(C(=O)OC)[C@H]1C[C@H]23)Nc1ccccc14 — higher, 7.46
- Cc1nn(C)c2c1C(c1ccccc1F)=NCC(=O)N2C — lower, 4.69
- CC1(C)CC2CCN1C(=O)C2 (stereo not drawn) — lower, 5.33
- CCN(CC)CCOCCN(C)C — higher, 10.2
- CN(C)CCC(C#N)(c1ccccc1)c1ccccc1 — higher, 8.31
- Cn1ccnc1-c1[nH+]ccn1C — lower, 0.5
- Nc1cnnc2ccccc12 — within 0.2 log units, 6.84
- Nc1ccc2c(c1)CCCC2 — lower, 5.2
- CCCCOC(=N)c1ccccc1 — lower, 6.09
- [NH3+]/N=C/c1ncnc2nc[nH]c12 — lower, 2.8
- NCCCCCCBr — higher, 10.6
- Fc1cccnc1 — lower, 2.97
- Cc1ncnc2nccnc12 — lower, 2.92
- CN(C)Cc1c(C(C)(C)C)cccc1C(C)(C)C — higher, 9.2
- Nc1ccnc([O-])n1 — higher, 12.2
- Cc1nc2cc([N+](=O)[O-])ccc2[nH]1 — lower, 5.16
- CC1=Nc2ccccc2N=C(C)C1 — lower, 3.85
- Oc1ccc(C2NCCS2)cc1 (stereo not drawn) — lower, 5.5
- CC(C)(C)N1C2CCCC21 (stereo not drawn) — higher, 9.22
- OCCn1cnc2ccccc21 — lower, 5.29
- NC1CC1 — higher, 9.1
- CC(C)CN[C@H](c1ccccc1)[C@H](O)c1ccccc1 — higher, 11.3
- CP(=O)(Cc1ccccc1)c1ccccc1 (stereo not drawn) — lower, -1.82
- CSS/C(CCO)=C(/C)N(C=O)Cc1cnc(C)nc1N — lower, 5.59
- CCOC(=O)C1(c2ccccc2)CCN(C)CC1 — higher, 8.6
- NCCCBr — higher, 8.93
- CC(C)CCCN(C)CCCNC(=O)/C=N/[O-] — higher, 10.2
- c1ccc(-c2ccccn2)nc1 — lower, 4.42
- [NH3+]CCC(=O)N[C@@H](Cc1cnc[nH]1)C(=O)[O-] — lower, 6.74
- CC(O)CNCC[NH3+] (stereo not drawn) — within 0.2 log units, 6.94
- Cc1cnc(C)c(C)n1 — lower, 2.65
- CCN1CCC=C1C — higher, 11.9
- Cc1nc2ccccc2n(C)c1=O — lower, 0.51
- Cc1ncc(CO)c(CO)c1O — lower, 4.96
- Cc1c[nH]c(C)c1 — lower, 2.04
- c1ccc(Oc2ccncc2)cc1 — lower, 6.16
- Cc1cc(N)nc(C)n1 — within 0.2 log units, 6.85
- Cc1cc(CN)c(O)c(CN)c1 — higher, 9.7
- Cc1cc(C)c2ccccc2n1 — lower, 5.11
- c1cnc2nc[nH]c2c1 — lower, 3.95
- O=Cc1cccc(C=O)n1 — lower, 1.92
- COC(=O)[C@@H]1[C@H](O)C[C@@H]2CC[C@H]1N2C — higher, 8.85
- Nc1cnc([S-])nc1N — higher, 10.4
- c1ccc(CC2=NCCC2)cc1 — within 0.2 log units, 6.9
- O=C([O-])[C@H](NCC[NH2+][C@@H](C(=O)[O-])c1ccccc1O)c1ccccc1O — lower, 6.33
- CC[C@H]1CN2CC[C@@H]1C[C@H]2[C@H](O)c1ccnc2ccc(OC)cc12 — higher, 8.67
- O=C(CN1CCCCC1)Nc1ccccc1 — higher, 7.85
- N[C@H]1C[C@H]2CCCC[C@@H]2C[C@@H]1N — higher, 10.1
- c1cncc(-c2cccnc2)c1 — lower, 4.6
- Cc1cc(-n2[nH+]c(C)cc2C)[nH]n1 — lower, -2.4
- Cc1cnc([O-])nc1N — higher, 12.4
- O=C([O-])CN(CC(=O)[O-])Cc1nc2ccccc2[nH]1 — within 0.2 log units, 6.87
- Cc1ccc(N)cc1Cl — lower, 4.05
- Cc1ccc(S(=O)(=O)N(C)CCC(=N)N)cc1 — higher, 11.5
